According to patent US9351998B2, “Methods of nourishing animals” (MariCal, Inc., priority 2008, dated 2016):

System: chicken CaSR
Assay: CaSR dependent ERK 1/2 phosphorylation (Western blot) in HEK cells transfected with chicken CaSR
Assay type: cell-based
Conditions: 1 micromolar MC 0100
Description: HEK cells transfected with the chicken CaSR were cultured under standard conditions (DMEM with 10% FCS). Confluent flasks were serum-starved overnight in DMEM supplemented with 0.2% BSA and pre-incubated for 60 min at 37° C. in the following medium: 125 mM NaCl, 4 mM KCl, 20 mM Hepes, 0.1% glucose, 0.8 mM NaH2PO4, 1 mM MgCl2, 0.1% BSA, 0.5 mM CaCl2, pH 7.45. The cells were then incubated in the same medium without BSA in the presence of different mineral chelates at different concentrations (see below) for 15 min at 37° C. At the end of the incubation treatment media was removed and cells were washed with PBS and than lysed in 250 microliter of M-PER lysis buffer (Pierce Chemical Company, Rockford, Ill.) containing 10 ul/ml of protease inhibitors (Pierce Chemical Company, Rockford, Ill.). Cell lysates were centrifuged for 10 min at 4° C. at 14,000×g. The protein content in the supernatants was analyzed using the BCA Protein Assay system from Pierce Chemical Company, Rockford, Ill. Equal amounts of protein (20 ug) were combined with 4× loading buffer and […] DTT, heated to 95° C., separated by SDS gel electrophoresis and electrotransferred to PVD membranes. The membranes were incubated in 1% BSA in TBS-T (TRIS-buffered saline containing Tween 20 at 0.1%) overnight. After 4 washes in TBS-T the membranes were incubated with primary antibody (anti phosphoERK at 1:400 dilution; this antibody recognizes the phosphorylated form of ERK 1/2) for 1.5 hours at room temperatures, washed 4 times and incubated with secondary antibody (anti mouse at 1:50,000 dilution). After 4 washes in TBS-T the membranes were developed using the ECL Western Blotting system.
The experiments described in FIGS. 34 A and B used the following metal chelate treatments: ZnProteinate, CuProteinate and MnProteinate (Balchem Corporation, New Hampton, N.Y.) at the following concentrations: 0.025% and 2.5%, or at a concentration of 0.025% with 1 micromolar MC 0100 (a calcimimetic); or various concentrations of bacitracin Zn.

COc1cccc([C@@H](C)NCCCc2ccccc2)c1 [MC0100]
effect on ERK1/2 phosphorylation response to 0.025% Cu Proteinate: net reduction | effect on ERK1/2 phosphorylation response to 0.025% Mn Proteinate: strongly enhanced
